Consider 14 compounds from patent publication US10202334B2, “Pendant amines and derivatives as inhibitors of leukotriene A4 hydrolase” (Celtaxsys, Inc., priority 2016, dated 2019).

Read-outs that look alike come from different tables or passages of the source.

Assay [1] addresses T1, recombinant human LTA4 hydrolase (Homo sapiens, UniProt P09960).
T1 sequence (P09960 1-611): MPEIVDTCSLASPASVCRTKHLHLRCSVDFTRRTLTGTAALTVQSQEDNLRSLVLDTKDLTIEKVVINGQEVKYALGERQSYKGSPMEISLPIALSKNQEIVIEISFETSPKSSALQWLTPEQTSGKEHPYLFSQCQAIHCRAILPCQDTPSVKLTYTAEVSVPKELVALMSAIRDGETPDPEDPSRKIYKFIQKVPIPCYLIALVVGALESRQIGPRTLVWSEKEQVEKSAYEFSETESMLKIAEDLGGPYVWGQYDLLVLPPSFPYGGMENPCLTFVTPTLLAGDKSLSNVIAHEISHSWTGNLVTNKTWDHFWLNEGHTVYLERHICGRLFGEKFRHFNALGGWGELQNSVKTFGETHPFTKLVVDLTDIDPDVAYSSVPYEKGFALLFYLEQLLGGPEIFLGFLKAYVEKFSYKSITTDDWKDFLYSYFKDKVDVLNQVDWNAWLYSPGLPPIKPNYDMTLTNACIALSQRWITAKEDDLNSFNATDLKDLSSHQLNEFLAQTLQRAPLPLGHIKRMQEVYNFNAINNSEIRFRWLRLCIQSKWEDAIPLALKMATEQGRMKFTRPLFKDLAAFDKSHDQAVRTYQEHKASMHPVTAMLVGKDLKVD
Description: LTA4 hydrolase homogeneous time resolved fluorescence (HTRF) assay. Format: biochemical. As for the experimental part: Compounds of the invention were tested in the LTA4 hydrolase homogeneous time resolved fluorescence (HTRF) assay to determine their ability to inhibit the hydrolysis of LTA4 to LTB4. The assay analyzes the amount of LTB4 produced.
LTA4 HTRF assay is a two-step assay involving enzymatic conversion of LTA4 to LTB4, and subsequent quantification of LTB4, product with HTRF assay.
The enzymatic conversion of LTA4 to LTB4 was performed in 384-well plates at ambient temperature in a reaction mixture containing 50 mM HEPES (pH 7.5), 0.5% BSA (fatty acid free), 18 nM recombinant human LTA4 hydrolase, 150 nM LTA4, 1% DMSO in the absence or presence of a compound of the invention. Reaction was stopped after 10 minutes incubation by diluting the incubation mixture 10-fold in 50 mM phosphate, 0.1% casein buffer (pH 7.0).
LTB4 formed was quantified with the HTRF assay in which free LTB4 competes with LTB4-XL665 conjugate (acceptor) for anti-LTB4 monoclonal antibody labeled with Europium cryptate (donor), thereby inhibiting the fluorescence energy transfer.
The LTB4 HTRF 384-well assay was carried out by incubating LTB4 samples or standards with LTB4-XL665 conjugate (7.5 ng/well) and anti-LTB4 monoclonal antibody-Europium cryptate conjugate (0.5 ng/well) in 50 mM phosphate, 0.4 M KF and 0.1% casein, buffer (pH 7.0) for two hours at ambient temperature. Plates were read in a RubyStar plate reader (BmG Labtechnologies Inc., NC) simultaneously at 620 nm and 665 nm to obtain signal ratios of 665 nm/620 nm. Results of energy transfer were expressed as delta F (%) which equaled [(signal ratio of sample-signal ratio of negative control)/(signal ratio of negative control)]×100%. Negative controls were control samples without LTB4 or LTB4-XL665.
Sample LTB4 concentrations were calculated from the LTB4 standard curve using the 4-parameter fit equation. For determination IC50 values for a particular compound of the invention, eight serially diluted compound concentrations (at 1:3.16 dilution) were used in this assay. Controls without a compound of the invention or with a reference compound were run parallel in the same assay plate.
For orientation: Time-resolved FRET reads energy transfer from a long-lived donor to a nearby acceptor.

The subject of assay [2] is production of LTB4 in whole blood. Kind of assay: Human whole blood assay (LTB4 release upon calcium ionophore, ELISA). Format: cell-based. As for the experimental part:
Compounds of the invention were tested for their ability as inhibitors of LTA4 hydrolase in a whole blood assay using human, mouse, rat or dog whole blood in a manner similar to that described in Penning, T. D. et al., J. Med. Chem. (2000), 43(4): 721-735. In this assay, compounds were tested for their ability to inhibit LTB4 release upon stimulation with calcium ionophore. The LTB4 levels in supernatants were measured by ELISA.
For orientation: An ELISA detects its analyte on a solid surface through an enzyme-linked reagent.

Assay [3] addresses T2, LTA4 hydrolase peptidase activity (Homo sapiens, UniProt P09960).
T2 sequence (P09960 1-611): T1 sequence (P09960 1-611)
Description: Peptidase assay (hydrolysis of L-alanine-p-nitroanilide). Format: biochemical. As for the experimental part:
Inhibition of peptidase activity was measured for the compounds of the invention by using methods similar to those described in Kull, F. et al., The Journal of Biological Chemistry 1999, 274 (49): 34683-34690.
In brief, the enzyme (29 nM) was incubated with L-alanine-p-nitroanilide (1 mM) in 50 mM HEPES (pH 7.5), 100 mM KCL, 1% DMSO in the absence or presence of a compound of the invention for 1 hour at ambient temperature. Reaction was terminated by addition of acetic acid (1%). Formation of colored nitro-aniline was measured by the increase in absorbance at 405 nm in a Victor 2 plate reader (Wallac). Spontaneous hydrolysis of the substrate was corrected for by subtracting the absorbance of control incubations without enzyme.

The mark [4] stands for this setting: read-out: inhibit LTA4 hydrolase activity, IC50 value.
[5] abbreviates: Homo sapiens, whole blood, read-out: inhibit production of LTB4 in whole blood, IC50 value.
Setting [6] is: Table 1, human whole blood, read-out: Human Whole Blood IC50.
The mark [7] stands for this setting: read-out: inhibit peptidase activity, IC50 value.
[8] abbreviates: Table 1, read-out: Hydrolase IC50.
Where [9] appears, read: Table 1, read-out: Peptidase IC50.

As a reminder, the IC50 is the midpoint of a concentration-inhibition curve. Take `CNC(=O)C(N)CCC(=O)Nc1ccc(OCc2ccccc2)cc1` (centres unmarked) [Example 1, 2-amino-N5-(4-(benzyloxy)phenyl)-N1-methylpentanediamide]: the concentration for half-maximal inhibition (IC50) in assay [1] (setting [4]) came out at 27 nM; in assay [2] (setting [5]), 117 nM; in assay [2] (setting [6]) it was 117 nM; in assay [3] (setting [7]), 24 nM.
Regarding `COC(=O)[C@@H](N)CCC(=O)Nc1ccc(OCC(O)c2ccccc2)cc1` (stereo partly drawn) [Example 11, methyl (2S)-2-amino-4-{[4-(2-hydroxy-2-phenylethoxy)phenyl]carbamoyl}butanoate], the values for the IC50 in assay [2] (setting [5]), in assay [2] (setting [6]) and in assay [3] (setting [7]) were 113 nM, 113 nM and 21 nM, respectively.
Regarding `COC(=O)CCC(=O)NCC(N)CCC(=O)Nc1ccc(Oc2ccccc2)cc1` (stereo in doubt) [Example 6, methyl 3-{[(2R)-2-amino-4-[(4-phenoxyphenyl)carbamoyl]butyl]carbamoyl}propanoate], the concentration for half-maximal inhibition (IC50) was 252 nM in assay [2] (setting [5]), 252 nM in assay [2] (setting [6]) and 215 nM in assay [3] (setting [7]).
Take `NC(CCC(=O)Nc1ccc(Oc2ccccc2)cc1)C(=O)NCCCl` (centres unmarked) [Example 3, 2-amino-N^1-(2-chloroethyl)-N^5-(4-phenoxyphenyl)pentanediamide]: the IC50 is 58 nM in assay [1] (setting [4]), 83 nM in assay [2] (setting [5]), 83 nM in assay [2] (setting [6]) and 24 nM in assay [3] (setting [7]).
`N[C@@H](CCC(=O)Nc1ccc(OCc2ccccc2)cc1)C(=O)NCc1ccccc1` [(2S)-2-amino-N-benzyl-N′-[4-(benzyloxy)phenyl]pentanediamide]: the values for the IC50 in assay [1] (setting [8]) and in assay [3] (setting [9]) were 107 nM and 118 nM, respectively.
Regarding `CC(C)(C)OC(=O)[C@@H](N)CCC(=O)Nc1ccc(CCC(=O)c2ccccc2)cc1` [tert-butyl N5-(4-(3-oxo-3-phenylpropyl)phenyl)glutaminate], the half-maximal inhibitory concentration (IC50) in assay [2] (setting [6]) was 41 nM; in assay [3] (setting [9]), 146 nM.
Turning to `COC(=O)[C@@H](N)CCC(=O)Nc1ccc(OCC(=O)c2ccccc2)cc1` [methyl N5-(4-(2-oxo-2-phenylethoxy)phenyl)glutaminate], the IC50 is 67 nM in assay [1] (setting [8]), 61 nM in assay [2] (setting [6]) and 31 nM in assay [3] (setting [9]).
With `COC(=O)[C@@H](N)CCC(=O)Nc1ccc(Oc2ccc(-n3cccc3)cc2)cc1` [Example 4, methyl N^5-(4-(4-(1H-pyrrol-1-yl)phenoxy)phenyl)glutaminate], the IC50 in assay [1] (setting [4]) is 17 nM; in assay [2] (setting [5]), 55 nM; in assay [2] (setting [6]), 55 nM; in assay [3] (setting [7]) it was 21 nM.
For the compound `NC(CCC(=O)NCCN1CCCC1)C(=O)Nc1ccc(Oc2ccc(-n3cccc3)cc2)cc1` (stereo in doubt) [Example 7, (2R)-2-amino-N-{4-[4-(1H-pyrrol-1-yl)phenoxy]phenyl}-N′-[2-(pyrrolidin-1-yl)ethyl]pentanediamide], the IC50 in assay [1] (setting [4]) worked out at 38 nM; in assay [2] (setting [5]), 138 nM; in assay [2] (setting [6]) it was 138 nM; in assay [3] (setting [7]), 25 nM.
For `NC(=O)C(N)CCC(=O)Nc1ccc(Oc2ccccc2)cc1` (centres unmarked) [Example 2, 4-amino-N1-(4-phenoxyphenyl)pentanediamide], the IC50 came to 84 nM in assay [1] (setting [4]), 143 nM in assay [2] (setting [5]), 143 nM in assay [2] (setting [6]) and 22 nM in assay [3] (setting [7]).
Consider `N[C@H](CCC(=O)Nc1ccc(Oc2ccc(-n3cccc3)cc2)cc1)C(=O)NCCc1cnc[nH]1` [Example 9, (2R)-2-amino-N-[2-(1H-imidazol-5-yl)ethyl]-N′-{4-[4-(1H-pyrrol-1-yl)phenoxy]phenyl}pentanediamide], for which the concentration for half-maximal inhibition (IC50) in assay [1] (setting [4]) was 10 nM; in assay [2] (setting [5]), 664 nM; in assay [2] (setting [6]), 664 nM; in assay [3] (setting [7]), 53 nM.
Take `COC(=O)[C@@H](N)CCC(=O)Nc1ccc(Nc2ccccc2)cc1` [Example 12, methyl (2S)-2-amino-4-{[4-(phenylamino)phenyl]carbamoyl}butanoate]: the results for the IC50 in assay [2] (setting [5]), in assay [2] (setting [6]) and in assay [3] (setting [7]) were 184 nM, 184 nM and 213 nM, respectively.
Consider `CCOC(=O)CCNC(=O)[C@H](N)CCC(=O)Nc1ccc(Oc2ccccc2)cc1` [Example 10, ethyl 3-[(2R)-2-amino-4-[(4-phenoxyphenyl)carbamoyl]butanamido]propanoate], for which the half-inhibitory concentration (IC50) in assay [1] (setting [4]) turned out to be 73 nM; in assay [3] (setting [7]), 40 nM.
On to “(2S)-2-amino-N-[2-(pyridin-2-yl)ethyl]-N′-{4-[4-(1H-pyrrol-1-yl)phenoxy]phenyl}pentanediamide [Example 8]”, for which the IC50 amounted to 264 nM in assay [2] (whole blood, read-out: inhibit production of LTB4 in whole blood, IC50 value) and 32 nM in assay [3] (setting [7]).
